Source: patent US20090221522A1, “METHODS TO CORRECT GENE SET EXPRESSION PROFILES TO DRUG SENSITIVITY” (The Johns Hopkins University, priority 2008, published 2009)

Key:
[1] = test system: Resectable Pancreatic Adenocarcinoma; test: Disease free survival after adjuvant gemcitabine; format: in vivo, human
Experimental: Statistical analysis was performed using software SPSS version 16 (SPSS Inc., Chicago, Ill.). P-values <0.05 were regarded as significant. Disease free survival (DFS) was analyzed using the Kaplan-Meier method and compared with the log-rank test.
The connectivity concept of the present invention can be used with actual patient profiles. Patients were recruited under the Phase II Study of an Individualized Drug Treatment Selection Process Based on a Tumor Xenograft Model for Patients with Resectable Pancreatic Adenocarcinoma (JHOC-J0507 JHOC-05041402, NCT00276744). All patients signed the informed consent of this trial. Twenty-four of the patients with complete follow-up data were included in this study. Direct-patient xenograft cases from the PancXenoBank, Rubio-Viqueira B, Jimeno A, Cusatis G, et al: An In vivo Platform for Translational Drug Development in Pancreatic Cancer. Clin Cancer Res 12:4652-4661, 2006, were also used.
The mean age of diagnosis for these patients is 65 years (range from 41 to 81 years). All patients received gemcitabine as adjuvant chemotherapy. Herrmann R, Bodoky G, Ruhstaller T, et al: Gemcitabine Plus Capecitabine Compared With Gemcitabine Alone in Advanced Pancreatic Cancer: A Randomized, Multicenter, Phase III Trial of the Swiss Group for Clinical Cancer Research and the Central European Cooperative Oncology Group. […] Cancer 85:1261-1268, 1999. […] See Oettle H, Post S, Neuhaus P, et al: Adjuvant Chemotherapy with Gemcitabine vs. Observation in Patients Undergoing Curative-Intent Resection of Pancreatic Cancer: A Randomized Controlled Trial. JAMA 297:267-277, 2007. The median DFS for these patients was 291 days.
Using the methods of the present invention, where a patient is connected to a sensitive cell line, the patient will be predicted as sensitive to gemcitabine and vice versa. This approach achieved an overall prediction accuracy of 71% on these retrospective patient samples. […] The positive predicted value and negative predicted value are 73% and 69%, respectively. […]

[2] = test system: patient-derived xenografts refractory to gemcitabine; test: Pre-clinical second-line study in xenografts refractory to gemcitabine (TGI); format: in vivo, mice; conditions: for TGI: treated with gemcitabine (first line)
Experimental: FIG. 11 illustrates a pre-clinical design.
FIG. 12 illustrates validation on the xenografts of FIG. 11 based on prediction according to the present invention. Four xenograft cases were used. […] A case is defined as a responder to the drug treatment if Tumor Growth Inhibition (TGI) is <20%. Negative TGI values indicate tumor regression.
Relative tumor growth index (TGI) was calculated as TGI=(Ti−T0/Ci−C0) if Ti>T0 (indicates tumor growth inhibition) and TGI=(Ti−T0) if Ti≦T0 (indicates tumor regression). T and C represent tumor size in the treated and control group at the last of experiment, respectively; T0 and C0 represent tumor size in the treated and control group at the start of treatment, respectively.
Seven FDA approved anticancer agents (capecitabine, cisplatin, docetaxel, doxorubicin, etoposide, irinotecan and oxaliplatin) were used as potential second line of drugs for selection according to the present invention. The one-size-fits-all treatment was erlotinib, an FDA approved targeted therapy for advanced pancreatic cancer. See Moore M J, Goldstein D, Hamm J, et al. Erlotinib plus gemcitabine compared with gemcitabine alone in patients with advanced pancreatic cancer: a phase Ill trial of the National Cancer Institute of Canada Clinical Trials Group. J Clin Oncol 25:1960-06 2007. […] Xenograft models of these cases were randomly assigned to (i) control, (ii) erlotinib arm (one-size-fits-all second line treatment) and (iii) molecular mimicry arm (i.e., drug selection according to the present invention). For the molecular mimicry arm, the baseline gene expression profiles of these cases were connected the NCI reference panel using GS-CMAP, and one of the seven anticancer agents was assigned to the case based on comparing the GI50 among these drugs. Molecular mimicry predicted that JH033 and JH034 are sensitive to docetaxel, PANC185 is sensitive to irinotecan and PANC219 is sensitive to doxorubicin. These cases were treated with the molecular mimicry choice of drugs and tumor volumes were measured. At the end of the experiment, xenografts treated with molecular mimicry choice of drugs had higher tumor growth inhibition than their litter mates treated with erlotinib (FIGS. 12 and 13).

[3] = test system: pancreatic cancer; conditions: cited from earlier work

## Nc1ccn([C@@H]2O[C@H](CO)[C@@H](O)C2(F)F)c(=O)n1 [gemcitabine]
[1]; all 24 patients, gemcitabine as adjuvant chemotherapy
  median DFS: 291 days
[1]; predicted gemcitabine resistant group
  median DFS: 162 days
[1]; predicted gemcitabine sensitive group
  median DFS: 491 days
[2]; four xenograft cases (PANC185, PANC219, JH033, JH034)
  median TGI: 36.5%
[2]; xenograft JH033
  TGI: more than 20%
[2]; xenograft JH034
  TGI: more than 20%
[2]; xenograft PANC185
  TGI: more than 20%
[2]; xenograft PANC219
  TGI: more than 20%
[3]; first-line
  patients who benefit from this therapy: ~20%
[3]; pancreatic cancer patients
  response rate: less than 20%
